Experimental findings from patent publication US10710986B2, “PD-1/PD-L1 inhibitors” (Gilead Sciences, Inc., priority 2018, dated 2020) are described below.

The structures appear in SMILES notation. pIC50: −log10 of the molar value.

PD-1/PD-L1, sequence (Q9NZQ7 19-238): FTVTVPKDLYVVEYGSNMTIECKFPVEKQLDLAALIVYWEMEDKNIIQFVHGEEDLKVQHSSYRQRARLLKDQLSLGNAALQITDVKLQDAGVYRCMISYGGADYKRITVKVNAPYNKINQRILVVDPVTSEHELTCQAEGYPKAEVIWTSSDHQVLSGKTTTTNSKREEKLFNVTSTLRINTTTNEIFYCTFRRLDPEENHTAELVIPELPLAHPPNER

The target in the assay is PD-1/PD-L1 (Homo sapiens (Human), UniProt Q9NZQ7). Briefly: PD-1/PD-L1 biochemical protein-protein interaction assay (ALPHA). Particulars: 0.3 nM His tagged PD-L1, 2.5 nM biotinylated Fc-PD-1, 60 minutes at 25° C., read-out: IC50 PD-L1-PD1. The protocol:
Binding of the protein pairs is measured using a bead based Amplified Luminescent Proximity Homogeneous Assay (ALPHA) platform. Binding of each protein pair results in proximity of the donor and acceptor beads which leads to an increase in ALPHA signal. […] Assays are performed in 25 mM Hepes (pH 7.4), 150 mM NaCl, 3.4 mM EDTA, 0.005% Tween 20, and 0.01% BSA. […] After an assay reaction time of 60 minutes at 25° C., binding was measured with addition of 20 μg/mL ALPHA assay acceptor beads (anti-His coated) and 20 µg/mL ALPHA assay donor beads (streptavidin coated). IC50 values were calculated from the fit of the dose-response curves to a four-parameter equation.
With `CCn1cc(CN2CC(O)C2)c2ncc(-c3cccc(-c4cccc(-c5cnc(CN6CC(O)C6)c(OC)n5)c4Cl)c3Cl)nc21` [compound 611], the negative-log IC50 (pIC50) is 9.68.

On to `COc1nc(-c2cccc(-c3cccc(-c4cnc(CNC[C@@H]5CCC(=O)N5)c(OC)n4)c3Cl)c2Cl)cnc1CNCCN1CCCS1(=O)=O` [compound 573], for which the pIC50 was 10.05.

Turning to `COc1nc(-c2cccc(-c3cccc(-c4cnc(CN5C[C@H](O)C[C@H]5CO)c(OC)n4)c3Cl)c2Cl)cnc1CNC[C@@H]1CCC(=O)N1` [compound 423], the pIC50 is 9.63.

For the compound `COc1nc(-c2cccc(-c3cccc(-c4cnc(CN[C@H]5COCC[C@@H]5O)c(OC)n4)c3Cl)c2Cl)cnc1CNC[C@@H]1CCC(=O)N1` [compound 336], the pIC50 is 9.86.

In the case of `CNc1nc(-c2cccc(-c3cccc(-c4cnc(CN5CC6(C5)CN(C(C)=O)C6)c(NC)n4)c3Cl)c2Cl)cnc1CN1CC2(C1)CN(C(C)=O)C2` [compound 76], the pIC50 is 10.05.

Take `COc1nc(-c2cccc(-c3cccc(-c4cnc(CN5CCCC(NC(C)=O)C5)c(OC)n4)c3Cl)c2Cl)cnc1CNC[C@H]1CCC(=O)N1` (stereo partly drawn) [compound 285]: the pIC50 is 9.45.

Take `COc1nc(-c2cccc(-c3cccc(-c4cnc(C5=NCCN5)c(OC)n4)c3Cl)c2Cl)ccc1CNC[C@@H]1CCC(=O)N1` [compound 645]: the pIC50 was 10.19.

As to `COc1nc(-c2cccc(-c3cccc(-c4cnc(CN5CCC6(CCC(=O)N6)C5)c(OC)n4)c3Cl)c2Cl)cnc1CN1CCC2(CCC(=O)N2)C1` (stereo not drawn) [compound 537], the pIC50 is 10.19.

As for `COc1nc(-c2cccc(-c3cccc(-c4cnc(CNC[C@@H]5C[C@@H](CC(F)(F)F)C(=O)N5)c(OC)n4)c3Cl)c2Cl)cnc1CNC[C@@H]1C[C@@H](CC(F)(F)F)C(=O)N1` [compound 330], the pIC50 is 8.25.

For `COc1nc(-c2cccc(-c3cccc(-c4cnc(CN5CC(OC)C5)c(OC)n4)c3Cl)c2Cl)cnc1CNC[C@@H]1CCC(=O)N1` [compound 173], the pIC50 is 9.68.

As for `COc1nc(-c2cccc(-c3cccc(-c4cnc(CN5CC6(CNC(=O)C6)C5)c(OC)n4)c3Cl)c2Cl)cnc1CN` [compound 591], the pIC50 was 9.86.

In the case of `COc1nc(-c2cccc(-c3cccc(-c4cnc(CNCC(C)(C)O)c(OC)n4)c3Cl)c2Cl)cnc1CNCC(C)(C)O` [compound 382], the negative logarithm of the IC50 (pIC50) was 9.54.

On to `COc1nc(-c2cccc(-c3cccc(-c4cnc(C5=NCC(F)(F)CN5)c(OC)n4)c3Cl)c2Cl)cnc1C1=NCC(F)(F)CN1` [compound 119], for which the pIC50 is 9.94.

Consider `COc1nc(-c2cccc(-c3cccc(-c4cnc(CN[C@H]5CCNC5=O)c(OC)n4)c3Cl)c2Cl)cnc1CNC[C@@H]1CCC(=O)N1` [compound 39], for which the pIC50 was 9.41.

Turning to `COc1nc(-c2cccc(-c3cccc(-c4cnc(CNC5CC(C)(O)C5)c(OC)n4)c3Cl)c2Cl)cnc1CN` (stereo not drawn) [compound 592], the pIC50 is 9.82.

`COc1nc(-c2cccc(-c3cccc(-c4cnc(CN5CC(C)(O)C5)c(OC)n4)c3Cl)c2Cl)cnc1CN1CC[C@@H](CO)C1` [compound 448]: the pIC50 is 10.19.

For the compound `COc1nc(-c2cccc(-c3cccc(-c4cnc(CNC[C@H]5C[C@](C)(O)C5)c(OC)n4)c3Cl)c2Cl)cnc1CNC[C@H]1C[C@](C)(O)C1` [compound 563], the negative-log IC50 (pIC50) is 9.37.

Regarding `COc1nc(-c2cccc(-c3cccc(-c4cnc(CN5CCC(O)(CO)C5)c(OC)n4)c3Cl)c2Cl)cnc1CNC[C@@H]1CCC(=O)N1` (stereo partly drawn) [compound 523], the pIC50 was 9.74.

In the case of `COc1nc(-c2cccc(-c3cccc(-c4cnc(CN5CC(O)(CO)C5)c(OC)n4)c3Cl)c2Cl)cnc1CN1CC(O)(CO)C1` [compound 240], the pIC50 was 10.05.

Consider `COc1nc(-c2cccc(-c3cccc(-c4cnc(CN5CC[C@@H](O)[C@H](C)C5)c(OC)n4)c3Cl)c2Cl)cnc1CNC[C@@H]1CCC(=O)N1` [compound 231], for which the pIC50 is 10.19.

As for `COc1cc(-c2cccc(-c3cccc(-c4cnc(CN5CC6(CNC(=O)C6)C5)c(OC)n4)c3Cl)c2Cl)ccc1CN1CC2(CNC(=O)C2)C1` [compound 123], the negative logarithm of the IC50 (pIC50) was 9.95.

Turning to `COc1nc(-c2cccc(-c3cccc(-c4cnc(CNCc5nc(C)n[nH]5)c(OC)n4)c3Cl)c2Cl)cnc1CNCc1nc(C)n[nH]1` [compound 29], the pIC50 is 8.96.

As for `COc1nc(-c2cccc(-c3cccc(-c4cnc(CN5CC6(CNC(=O)C6)C5)c(OC)n4)c3Cl)c2Cl)cnc1CN1CC(C)(O)C1` [compound 444], the negative-log IC50 (pIC50) was 10.13.

As for `COc1nc(-c2cccc(-c3cccc(-c4cnc(CNC[C@@H]5CCC(=O)N5)c(OC)n4)c3Cl)c2Cl)cnc1CNCC[C@H]1CNC(=O)C1` [compound 541], the pIC50 was 10.03.

Take `COc1nc(-c2cccc(-c3cccc(-c4cnc(CNC[C@@H]5CCC(=O)N5)c(OC)n4)c3Cl)c2Cl)ccc1CN1CCC(C)(O)CC1` [compound 158]: the pIC50 was 9.79.

Take `COc1nc(-c2cccc(-c3cccc(-c4cnc(CN5C6COCC5C6)c(OC)n4)c3Cl)c2Cl)cnc1CNC[C@@H]1CCC(=O)N1` [compound 485]: the pIC50 was 9.64.

For `COc1nc(-c2cccc(-c3cccc(-c4cnc(CNC[C@H]5CCC(=O)N5)c(OC)n4)c3Cl)c2Cl)cnc1CNCCc1ncc[nH]1` [compound 201], the pIC50 was 9.55.

As for `COc1nc(-c2cccc(-c3cccc(-c4cnc(CNCC56CC(O)(C5)C6)c(OC)n4)c3Cl)c2Cl)cnc1CNCC12CC(O)(C1)C2` [compound 544], the pIC50 was 9.62.

Consider `CNC(=O)NC1CN(Cc2ncc(-c3cccc(-c4cccc(-c5cnc(CNC[C@@H]6CCC(=O)N6)c(OC)n5)c4Cl)c3Cl)nc2OC)C1` [compound 557], for which the pIC50 was 10.05.

As for `COc1nc(-c2cccc(-c3cccc(-c4cnc(CN5CC[C@H](O)C5)c(OC)n4)c3Cl)c2Cl)cnc1CN` [compound 586], the pIC50 is 9.54.

As to `COc1nc(-c2cccc(-c3cccc(-c4cnc(CN5CC[C@H](OC)C5)c(OC)n4)c3Cl)c2Cl)cnc1CNC[C@@H]1CCC(=O)N1` [compound 430], the pIC50 is 10.15.

As to `CNc1nc(-c2cccc(-c3cccc(-c4cnc(CN5CC6(CCC(=O)N6)C5)c(OC)n4)c3Cl)c2Cl)cnc1CN1CC2(CCC(=O)N2)C1` [compound 62], the negative logarithm of the IC50 (pIC50) was 9.80.

As to `COc1nc(-c2cccc(-c3cccc(-c4cnc(CN5CC(O)C5)c(OC)n4)c3Br)c2F)cnc1CN1CC(O)C1` [compound 395], the negative logarithm of the IC50 (pIC50) was 8.03.

With `COc1nc(-c2cccc(-c3cccc(-c4cnc(CNC[C@@H]5CCC(=O)N5)c(OC)n4)c3Cl)c2Cl)cnc1CNCC1CCN(C(N)=O)C1` (stereo partly drawn) [compound 471], the negative-log IC50 (pIC50) is 9.92.

For `COc1nc(-c2cccc(-c3cccc(-c4cnc(CNC[C@@H]5CCC(=O)N5)c(OC)n4)c3Cl)c2Cl)cnc1CNCC1CCNC1=O` (stereo partly drawn) [compound 658], the pIC50 was 9.71.

As to `COc1nc(-c2cccc(-c3cccc(-c4cnc(CN5CCCC6(C5)NC(C)=NC6=O)c(OC)n4)c3Cl)c2Cl)cnc1CNC[C@@H]1CCC(=O)N1` (stereo partly drawn) [compound 291], the pIC50 was 9.67.

Regarding `COc1nc(-c2cccc(-c3cccc(-c4cnc(CN5CCC(C)(CO)C5)c(OC)n4)c3Cl)c2Cl)cnc1CNC[C@@H]1CCC(=O)N1` (stereo partly drawn) [compound 442], the pIC50 was 9.84.

`CNc1nc(-c2cccc(-c3cccc(-c4cnc(CN5CCC5)c(NC)n4)c3Cl)c2Cl)cnc1CN1CCC1` [compound 72]: the pIC50 was 9.70.

For `COc1nc(-c2cccc(-c3cccc(-c4cnc(CN[C@@H](C)CO)c(OC)n4)c3Cl)c2Cl)cnc1CNC[C@@H]1CCC(=O)N1` [compound 346], the pIC50 is 9.49.

Take `COc1nc(-c2cccc(-c3cccc(-c4cnc(CNC[C@@H]5CCC(=O)N5)c(OC)n4)c3Cl)c2Cl)cnc1CNCc1ncccc1O` [compound 338]: the pIC50 is 9.25.

For the compound `COc1nc(-c2cccc(-c3cccc(-c4cnc(CN5CCC([C@H](C)O)CC5)c(OC)n4)c3Cl)c2Cl)cnc1CNC[C@@H]1CCC(=O)N1` [compound 457], the pIC50 was 9.76.

As to `COc1nc(-c2cccc(-c3cccc(-c4cnc(CN[C@@H]5CCN(S(C)(=O)=O)C5)c(OC)n4)c3Cl)c2Cl)cnc1CN[C@@H]1CCN(S(C)(=O)=O)C1` [compound 321], the pIC50 is 9.34.

`COc1nc(-c2cccc(-c3cccc(-c4cnc(CN5CC[C@H](NC(C)=O)C5)c(OC)n4)c3Cl)c2Cl)cnc1CNC[C@H]1CCC(=O)N1` [compound 204]: the pIC50 was 9.96.

As for `COc1nc(-c2cccc(-c3cccc(-c4cnc(CNC[C@H]5CCCN5C(C)=O)c(OC)n4)c3Cl)c2Cl)cnc1CNC[C@@H]1CCC(=O)N1` [compound 17], the pIC50 was 9.79.

As for `CNCc1ncc(-c2cccc(-c3cccc(-c4cnc(CN5CCC5)c(NC)n4)c3Cl)c2Cl)nc1NC` [compound 73], the pIC50 is 9.43.

In the case of `COc1nc(-c2cccc(-c3cccc(-c4cnc(CNC5CC6(C5)CN(C(C)=O)C6)c(OC)n4)c3Cl)c2Cl)cnc1CNC1CC2(C1)CN(C(C)=O)C2` (stereo not drawn) [compound 190], the pIC50 is 9.70.

`COc1nc(-c2cccc(-c3cccc(-c4cnc(CN5CC6(CCC(=O)N6)C5)c(OC)n4)c3Cl)c2Cl)cnc1CN1CC(C)(O)C1` [compound 445]: the pIC50 was 10.16.

As to `COc1nc(-c2cccc(-c3cccc(-c4cnc(CNC[C@H]5C[C@](C)(O)C5)c(OC)n4)c3Cl)c2Cl)cnc1CNC[C@@H]1CCC(=O)N1` [compound 567], the pIC50 was 10.19.

Regarding `COc1nc(-c2cccc(-c3cccc(-c4cnc(CNC[C@@H]5CCC(=O)N5)c(OC)n4)c3Cl)c2Cl)ccc1CN1CC(O)C1` [compound 164], the pIC50 was 9.91.

Take `COC1CN(Cc2ncc(-c3cccc(-c4cccc(-c5cnc(CN6CC(OC)C6)c(N(C)C)n5)c4Cl)c3Cl)nc2N(C)C)C1` [compound 97]: the pIC50 was 9.15.

With `COc1nc(-c2cccc(-c3cccc(-c4cnc(C5=NCC(C)(C)N5)c(OC)n4)c3Cl)c2Cl)cnc1C1=NCC(C)(C)N1` [compound 127], the pIC50 is 10.19.
